We go through 24 molecules from patent US8344008B2 (Janssen Pharmaceutica NV, priority 2007, dated 2013).

This test concerns the target T1, recombinant human LTA4 hydrolase (rhLTA4H) (Homo sapiens, UniProt P09960).
T1 construct: made in house; host or cells: Spodoptera frugiperda (Sf-9) cells, baculovirus (pFastBac1)
T1 sequence (P09960 1-611): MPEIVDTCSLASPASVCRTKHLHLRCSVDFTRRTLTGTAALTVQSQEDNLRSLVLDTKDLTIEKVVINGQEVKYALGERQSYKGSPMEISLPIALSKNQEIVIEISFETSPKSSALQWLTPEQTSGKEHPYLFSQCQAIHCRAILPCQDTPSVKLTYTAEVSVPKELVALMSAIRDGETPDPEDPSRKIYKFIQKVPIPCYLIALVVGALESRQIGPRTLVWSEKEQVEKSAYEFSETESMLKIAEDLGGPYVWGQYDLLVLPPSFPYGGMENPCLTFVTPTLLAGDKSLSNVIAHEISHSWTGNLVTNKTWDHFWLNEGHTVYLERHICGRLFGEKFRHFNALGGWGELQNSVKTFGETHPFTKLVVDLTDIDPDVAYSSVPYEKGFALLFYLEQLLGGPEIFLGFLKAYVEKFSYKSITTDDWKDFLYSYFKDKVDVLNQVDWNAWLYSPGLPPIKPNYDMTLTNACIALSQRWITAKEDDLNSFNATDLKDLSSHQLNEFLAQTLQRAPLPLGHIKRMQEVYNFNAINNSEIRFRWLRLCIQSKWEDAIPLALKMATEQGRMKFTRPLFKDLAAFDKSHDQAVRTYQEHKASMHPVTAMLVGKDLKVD
As to the kind of experiment: Recombinant Human LTA4 Hydrolase Assay for LTA4 Hydrolase Inhibitor Activity. It is filed as biochemical. The settings on record: average of results obtained; LTB4 quantified by enzyme-linked immunoassay. How it is done: Biological Methods: Recombinant Human LTA4 Hydrolase Assay for LTA4 Hydrolase Inhibitor Activity
Compounds of the present invention were tested for LTA4 hydrolase inhibitor activity against recombinant human LTA4 hydrolase (rhLTA4H). Vectors were prepared and used to express rhLTA4H essentially as follows: LTA4 hydrolase encoding DNA was amplified by polymerase chain reaction (PCR) using a human placental cDNA library as a template. Oligonucleotide primers for the PCR reaction were based on the 5′-end, and the complement of the 3′-end, of the published nucleotide sequence for the coding region of the human LTA4 hydrolase gene (C. D. Funk et al., Proc. Natl. Acad. Sci. USA 1987, 84:6677-6681). The amplified 1.9 kb DNA fragment encoding LTA4 hydrolase was isolated and cloned into the pFastBac1 vector (Invitrogen). Recombinant baculovirus was generated as described by the manufacturer, and used to infect Spodoptera frugiperda (Sf-9) cells. Recombinant LTA4 hydrolase enzyme was purified from the infected Sf-9 cells essentially as described by J. K. Gierse et al. (Protein Expression and Purification 1993, 4:358-366). The purified enzyme solution was adjusted to contain 0.29 mg/mL LTA4 hydrolase, 50 mM Tris (pH 8.0), 150 mM NaCl, 5 mM dithiothreitol, 50% glycerol, and EDTA-free Complete protease inhibitor cocktail (Roche). The specific activity of the enzyme was about 3.8 μmol/min/mg.
LTA4 substrate was prepared from the methyl ester of LTA4 (Cayman Chemical) by treatment with 67 equiv of NaOH under nitrogen at rt for 40 min. The LTA4 substrate in its free acid form was kept frozen at −80° C. until needed. Each compound was diluted to different concentrations in assay buffer (0.1 M potassium phosphate (pH 7.4), 5 mg/mL fatty acid free BSA) containing 10% DMSO. A 25-uL aliquot of each compound dilution was incubated for 10 min at rt with an equal volume of assay buffer containing 36 ng of recombinant human LTA4H. The solution was then adjusted to 200 μL with assay buffer. LTA4 (free acid) was thawed and diluted in assay buffer to a concentration of 357 ng/mL, and 25 μL (9 ng) of LTA4 substrate was added to the reaction mixture (total volume=225 μL) at time zero. Each reaction was carried out at rt for 10 min. The reaction was stopped by diluting 10 μL of the reaction mixture with 200 μL of assay buffer. LTB4 was quantified in the diluted sample by a commercially available enzyme-linked immunoassay (Cayman Chemical Co.), as recommended by the manufacturer. Positive controls, under essentially identical conditions but without addition of an inhibitor compound, and negative controls, containing all assay components except enzyme, were routinely run in each experiment. […]
Results for the compounds tested in this assay are presented in Table 1 as an average of results obtained.

`CC(C)(C)OC(=O)N1CC(C(=O)N2C[C@@H]3C[C@H]2CN3Cc2ccc(Oc3nc4ccccc4s3)cc2)C1` [Example 64, (S,S)-3-{5-[4-(Benzothiazol-2-yloxy)-benzyl]-2,5-diaza-bicyclo[2.2.1]heptane-2-carbonyl}-azetidine-1-carboxylic acid tert-butyl ester]: the Ki was determined as 58 nM.
With `CS(=O)(=O)N1CC2CN(Cc3ccc(Cc4nc5ccccc5s4)cc3)CC2C1` (stereo not drawn) [Example 150, 2-[4-(5-Methanesulfonyl-hexahydro-pyrrolo[3,4-c]pyrrol-2-ylmethyl)-benzyl]-benzothiazole], the Ki amounted to 193 nM.
The figure for `O=C(NCc1ccco1)N1CC2CN(Cc3ccc(Oc4nc5ccccc5s4)cc3)CC2C1` (stereo not drawn) [Example 131, 5-[4-(Benzothiazol-2-yloxy)-benzyl]-hexahydro-pyrrolo[3,4-c]pyrrole-2-carboxylic acid (furan-2-ylmethyl)-amide] is 13 nM.
Turning to `NC(=O)N1C[C@H]2CCN(Cc3ccc(Oc4nc5ccccc5s4)cc3)[C@H]2C1` [Example 138, (R,R)-1-[4-(Benzothiazol-2-yloxy)-benzyl]-hexahydro-pyrrolo[3,4-b]pyrrole-5-carboxylic acid amide], the Ki turned out to be 29 nM.
On to `O=C(Nc1ccncc1)N1CC2CN(Cc3ccc(Oc4nc5ccccc5s4)cc3)CC2C1` (stereo not drawn) [Example 132, 5-[4-(Benzothiazol-2-yloxy)-benzyl]-hexahydro-pyrrolo[3,4-c]pyrrole-2-carboxylic acid pyridin-4-yl amide], for which the Ki was found to be 18 nM.
Turning to `NC(=O)N1C[C@H]2C[C@@H]1CN2CCc1ccc(Oc2nc3ccc(Cl)cc3s2)cc1` [Example 246, (R,R)-5-{2-[4-(6-Chloro-benzothiazol-2-yloxy)-phenyl]-ethyl}-2,5-diaza-bicyclo[2.2.1]heptane-2-carboxylic acid amide], the Ki is 40 nM.
For the molecule `NC(=O)N[C@H]1C[C@H]2CC[C@@H](C1)N2CCc1ccc(Oc2nc3cccc(F)c3s2)cc1` [Example 190, meso-endo-(8-{2-[4-(7-Fluoro-benzothiazol-2-yloxy)-phenyl]-ethyl}-8-aza-bicyclo[3.2.1]oct-3-yl)-urea], the Ki worked out at 16 nM.
Consider `CC(=O)N1CC2CCN(Cc3ccc(Oc4nc5ccccc5s4)cc3)C2C1` (stereo not drawn) [Example 86, 1-{1-[4-(Benzothiazol-2-yloxy)-benzyl]-hexahydro-pyrrolo[3,4-b]pyrrol-5-yl}-ethanone], for which the Ki amounted to 55 nM.
For `O=C(c1ccsc1)N1CC2CN(Cc3ccc(Oc4nc5ccccc5s4)cc3)CC2C1` (stereo not drawn) [Example 109, {5-[4-(Benzothiazol-2-yloxy)-benzyl]-hexahydro-pyrrolo[3,4-c]pyrrol-2-yl}-thiophen-3-yl-methanone], the Ki worked out at 135 nM.
Regarding `O=C(c1cccs1)N1C[C@@H]2C[C@H]1CN2Cc1ccc(Oc2nc3ccccc3s2)cc1` [Example 61, (S,S)-{5-[4-(Benzothiazol-2-yloxy)-benzyl]-2,5-diaza-bicyclo[2.2.1]hept-2-yl}-thiophen-2-yl-methanone], the Ki was determined as 27 nM.
In the case of `CS(=O)(=O)N1[C@@H]2CC[C@H]1C[C@@H](NCCOc1ccc(Oc3nc4c(Cl)cccc4s3)cc1)C2` [Example 194, meso-endo-{2-[4-(4-Chloro-benzothiazol-2-yloxy)-phenoxy]-ethyl}-(8-methanesulfonyl-8-aza-bicyclo[3.2.1]oct-3-yl)-amine], the Ki turned out to be 3140 nM.
`NC(=O)N[C@@H]1C[C@H]2CC[C@@H](C1)N2CCOc1ccc(Oc2nc3c(F)cccc3s2)cc1` [Example 204, meso-exo-(8-{2-[4-(4-Fluoro-benzothiazol-2-yloxy)-phenoxy]-ethyl}-8-aza-bicyclo[3.2.1]oct-3-yl)-urea]: the Ki worked out at 5 nM.
Turning to `CS(=O)(=O)N1[C@@H]2CC[C@H]1C[C@@H](NCCOc1ccc(Oc3nc4cccc(Cl)c4s3)cc1)C2` [Example 248, meso-endo-{2-[4-(7-Chloro-benzothiazol-2-yloxy)-phenoxy]-ethyl}-(8-methanesulfonyl-8-aza-bicyclo[3.2.1]oct-3-yl)-amine], the Ki was 3130 nM.
`CC(=O)N1C[C@H]2C[C@@H]1CN2Cc1ccc(Oc2nc3c(Cl)cccc3s2)cc1` [Example 164, (R,R)-1-{5-[4-(4-Chloro-benzothiazol-2-yloxy)-benzyl]-2,5-diaza-bicyclo[2.2.1]hept-2-yl}-ethanone]: the Ki is 417 nM.
Turning to `NC(=O)N[C@@H]1C[C@H]2CC[C@@H](C1)N2Cc1ccc(Oc2nc3c(Cl)cccc3s2)cc1` [Example 229, meso-exo-{8-[4-(4-Chloro-benzothiazol-2-yloxy)-benzyl]-8-aza-bicyclo[3.2.1]oct-3-yl}-urea], the Ki stood at 20 nM.
For `NC(=O)N1C[C@H]2C[C@@H]1CN2CCc1ccc(Oc2nc3c(Cl)cccc3s2)cc1` [Example 252, (R,R)-5-{2-[4-(4-Chloro-benzothiazol-2-yloxy)-phenyl]-ethyl}-2,5-diaza-bicyclo[2.2.1]heptane-2-carboxylic acid amide], the Ki worked out at 108 nM.
`O=C(O)CN1CC2CN(Cc3ccc(Oc4nc5ccccc5s4)cc3)CC2C1` (stereo not drawn) [Example 158, {5-[4-(Benzothiazol-2-yloxy)-benzyl]-hexahydro-pyrrolo[3,4-c]pyrrol-2-yl}-acetic acid]: the Ki was found to be 48 nM.
As to `NC(=O)N1CCC2CN(Cc3ccc(Oc4nc5ccccc5s4)cc3)CC2C1` (stereo not drawn) [Example 143, 2-[4-(Benzothiazol-2-yloxy)-benzyl]-octahydro-pyrrolo[3,4-c]pyridine-5-carboxylic acid amide], the Ki was determined as 33 nM.
For `CS(=O)(=O)N1CC2CCC(C1)N2Cc1ccc(Oc2nc3c(F)cccc3s2)cc1` [Example 258, meso-4-Fluoro-2-[4-(3-methanesulfonyl-3,8-diaza-bicyclo[3.2.1]oct-8-ylmethyl)-phenoxy]-benzothiazole], the Ki was determined as 8 nM.
Consider `O=C(N1C[C@@H]2C[C@H]1CN2CCc1cccc(Oc2nc3ccccc3s2)c1)C1(O)CC1` [Example 18, (S,S)-(5-{2-[3-(Benzothiazol-2-yloxy)-phenyl]-ethyl}-2,5-diaza-bicyclo[2.2.1]hept-2-yl)-(1-hydroxy-cyclopropyl)-methanone], for which the Ki worked out at 66 nM.
The figure for `CS(=O)(=O)N[C@H]1C[C@H]2CC[C@@H](C1)N2Cc1ccc(Oc2nc3ccccc3s2)cc1` [Example 58, meso-endo-N-{8-[4-(Benzothiazol-2-yloxy)-benzyl]-8-aza-bicyclo[3.2.1]oct-3-yl}-methanesulfonamide] is 0.2 nM; for `COC(=O)c1ccc(CN2CC3CN(Cc4ccc(Oc5nc6ccccc6s5)cc4)CC3C2)cc1` (stereo not drawn) [Example 153, 4-{5-[4-(Benzothiazol-2-yloxy)-benzyl]-hexahydro-pyrrolo[3,4-c]pyrrol-2-ylmethyl)-benzoic acid methyl ester] it is 167 nM.
The same measure for `NC(=O)N[C@@H]1C[C@H]2CC[C@@H](C1)N2Cc1ccc(Oc2nc3cc(F)ccc3s2)cc1` [Example 260, meso-exo-{8-[4-(5-Fluoro-benzothiazol-2-yloxy)-benzyl]-8-aza-bicylclo[3.2.1]oct-3-yl}-urea]: 26 nM; for `CS(=O)(=O)N1CCC2CN(Cc3ccc(Oc4nc5ccccc5s4)cc3)CC2C1` (stereo not drawn) [Example 130, 2-[4-(5-Methanesulfonyl-octahydro-pyrrolo[3,4-c]pyridin-2-ylmethyl)-phenoxy]-benzothiazole]: 21 nM.
